Reference: patent US8722720B2, “Imidazole derivatives as IDO inhibitors” (NewLink Genetics Corporation, priority 2010, dated 2014)

Biological target: T1, purified human IDO protein (Homo sapiens, UniProt P14902)
T1 construct: 2 extra amino acids (linker from the BglII cloning site of pQE70); made in house; host or cells: E. coli M15(pREP4) with plasmid pQE70-hIDO
Assay: Enzymatic IDO assay (kynurenine production, absorbance at 480 nm)
Assay type: biochemical
Settings: hIDO IC50, recombinant human IDO; values reported in ranges
In short: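 Inhibitors (final 1 mM to 5 nM, in 50 mM potassium phosphate) preincubated with enzyme 5 min at 25 °C, then 200 μM L-tryptophan added, 15 min at 37 °C. TCA stop and 60 °C hydrolysis to kynurenine, detected with p-dimethylaminobenzaldehyde at 480 nm. IC50 by nonlinear regression.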

T1 sequence (P14902 whole entry P110S/E119G): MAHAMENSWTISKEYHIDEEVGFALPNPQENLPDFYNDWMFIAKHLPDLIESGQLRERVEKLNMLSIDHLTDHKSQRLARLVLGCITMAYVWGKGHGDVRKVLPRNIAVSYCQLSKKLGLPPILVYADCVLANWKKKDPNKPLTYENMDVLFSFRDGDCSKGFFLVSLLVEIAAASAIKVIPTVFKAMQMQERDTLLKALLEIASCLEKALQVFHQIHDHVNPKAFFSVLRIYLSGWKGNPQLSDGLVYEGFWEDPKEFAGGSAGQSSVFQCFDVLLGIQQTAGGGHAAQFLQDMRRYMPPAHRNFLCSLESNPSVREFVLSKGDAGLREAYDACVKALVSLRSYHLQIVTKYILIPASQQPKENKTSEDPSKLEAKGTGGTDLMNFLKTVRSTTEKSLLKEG

Compound	IC50
CN1CCN(C(=O)Oc2ccc(Cl)cc2-c2c[nH]cn2)CC1 [compound 1112, 4-chloro-2-(1H-imidazol-4-yl)phenyl 4-methylpiperazine-1-carboxylate]	10 to 100 µM

Same assay, conditions: recombinant human IDO; values reported in ranges; read-out: hIDO IC50

Compound	IC50
O=C(Cc1ccccc1)Nc1ccc(CCOc2ccccc2-c2cnc[nH]2)cc1 [compound 1102, N-(4-(2-(2-(1H-imidazol-4-yl)phenoxy)ethyl)phenyl)-2-phenylacetamide]	< 1 µM
CC(CC1CCCCC1)Oc1ccccc1-c1c[nH]cn1 (stereo not drawn) [compound 1044, 4-(2-(1-cyclohexylpropan-2-yloxy)phenyl)-1H-imidazole]	10 to 100 µM
FC(F)(F)c1ccccc1CCOc1ccccc1-c1c[nH]cn1 [compound 1040, 4-(2-(2-(trifluoromethyl)phenethoxy)phenyl)-1H-imidazole]	1 to 10 µM
O=C(Cc1cnccn1)Nc1ccc(CCOc2ccccc2-c2c[nH]cn2)cc1 [compound 1153, N-(4-(2-(2-(1H-imidazol-4-yl)phenoxy)ethyl)phenyl)-2-(pyrazin-2-yl)acetamide]	10 to 100 µM

Continued, values first:

IC50	Compound
1 to 10 µM	O=C(Cc1cccs1)Nc1ccc(CCOc2ccccc2-c2c[nH]cn2)cc1 [compound 1154, N-(4-(2-(2-(1H-imidazol-4-yl)phenoxy)ethyl)phenyl)-2-(thiophen-2-yl)acetamide]
1 to 10 µM	Nc1nc(CC(=O)Nc2ccc(CCOc3ccccc3-c3c[nH]cn3)cc2)cs1 [compound 1257, N-(4-(2-(2-(1H-imidazol-4-yl)phenoxy)ethyl)phenyl)-2-(2-aminothiazol-4-yl)acetamide]
1 to 10 µM	O=C(COc1ccccc1-c1c[nH]cn1)C1CCCCC1 [compound 1354, 2-(2-(1H-imidazol-4-yl)phenoxy)-1-cyclohex-ylethanone]
10 to 100 µM	O=C(CC1CCOCC1)Nc1ccc(CCOc2ccccc2-c2c[nH]cn2)cc1Cl [compound 1297, N-(4-(2-(2-(1H-imidazol-4-yl)phenoxy)ethyl)-2-chlorophenyl)-2-(tetrahydro-2H-pyran-4-yl)acetamide]
